Changes are numbered by the printed parent chain.

Among the data in PMC10030467 (Nature Communications, 2023) are Kd values, retold here.

Common to all, as to assay: microscale thermophoresis
Assay type in all cases: binding

For test [1], the target named is T1, TRIM72 (full-length; also MG53) (Homo sapiens, UniProt Q6ZMU5).
T1 construct: full-length residues 2-477; E. coli Rosetta (DE3), His-Sumo cut by Ulp1; GFP-labelled for MST, FLAG-tagged for PIP-Strips; dimer
T1 sequence (Q6ZMU5 2-477): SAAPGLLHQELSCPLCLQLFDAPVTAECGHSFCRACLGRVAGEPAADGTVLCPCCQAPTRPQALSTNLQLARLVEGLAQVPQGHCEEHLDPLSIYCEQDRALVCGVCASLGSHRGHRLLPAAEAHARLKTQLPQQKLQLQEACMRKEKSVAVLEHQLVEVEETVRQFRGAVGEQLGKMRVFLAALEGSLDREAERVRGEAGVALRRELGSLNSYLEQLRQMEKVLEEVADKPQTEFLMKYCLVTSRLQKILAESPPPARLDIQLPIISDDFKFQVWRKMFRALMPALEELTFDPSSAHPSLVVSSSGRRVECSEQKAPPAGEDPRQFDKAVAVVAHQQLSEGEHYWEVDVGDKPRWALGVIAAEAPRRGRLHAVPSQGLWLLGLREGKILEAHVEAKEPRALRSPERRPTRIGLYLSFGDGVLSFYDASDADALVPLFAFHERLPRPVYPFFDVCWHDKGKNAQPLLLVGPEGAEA
Conditions: 50 mM Tris pH 8.0, 80 mM NaCl, 0.05% Tween 20, 0.3 mM TCEP; room temperature; GFP-labelled protein.

The target in the next test is T2, SPRY domain (Homo sapiens, UniProt Q6ZMU5).
T2 construct: gene TRIM72; SPRY domain, residues 278-477; E. coli; GFP-labelled for MST; monomer
T2 sequence (Q6ZMU5 278-477): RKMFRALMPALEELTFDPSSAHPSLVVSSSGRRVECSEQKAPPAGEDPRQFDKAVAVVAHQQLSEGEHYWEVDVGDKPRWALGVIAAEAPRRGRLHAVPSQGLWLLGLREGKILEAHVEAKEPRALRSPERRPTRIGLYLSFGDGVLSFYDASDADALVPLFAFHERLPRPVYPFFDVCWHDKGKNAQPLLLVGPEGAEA
The conditions noted are these: 50 mM Tris pH 8.0, 80 mM NaCl, 0.05% Tween 20, 0.3 mM TCEP; room temperature; GFP-labelled protein.

For test [2], the target named is T3, coiled-coil domain alone (121-277) (Homo sapiens, UniProt Q6ZMU5).
T3 construct: gene TRIM72; coiled-coil domain, residues 121-277; E. coli; GFP-labelled for MST
T3 sequence (Q6ZMU5 121-277): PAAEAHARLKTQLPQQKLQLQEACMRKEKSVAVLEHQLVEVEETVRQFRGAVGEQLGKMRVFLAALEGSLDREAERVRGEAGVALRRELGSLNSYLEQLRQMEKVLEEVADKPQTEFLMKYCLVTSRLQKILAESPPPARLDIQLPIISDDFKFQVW
Conditions: 50 mM Tris pH 8.0, 80 mM NaCl, 0.05% Tween 20, 0.3 mM TCEP; room temperature; GFP-labelled protein.

The target in a further test is T4, CC-SPRY (Homo sapiens, UniProt Q6ZMU5).
T4 construct: gene TRIM72; coiled-coil plus SPRY; E. coli; GFP-labelled for MST; dimer
T4 sequence (Q6ZMU5 122-477): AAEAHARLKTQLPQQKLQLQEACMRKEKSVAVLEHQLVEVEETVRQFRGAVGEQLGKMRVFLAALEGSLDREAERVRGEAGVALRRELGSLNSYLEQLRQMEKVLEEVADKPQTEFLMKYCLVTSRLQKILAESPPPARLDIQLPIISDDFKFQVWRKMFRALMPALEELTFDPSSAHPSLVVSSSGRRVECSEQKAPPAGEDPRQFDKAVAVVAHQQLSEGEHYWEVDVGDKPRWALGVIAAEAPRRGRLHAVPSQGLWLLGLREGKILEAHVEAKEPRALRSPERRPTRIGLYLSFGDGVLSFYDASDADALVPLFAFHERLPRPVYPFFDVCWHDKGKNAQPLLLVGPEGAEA
Conditions: 50 mM Tris pH 8.0, 80 mM NaCl, 0.05% Tween 20, 0.3 mM TCEP; room temperature; GFP-labelled protein.

The target in test [3] is T5, TRIM72 (full-length; also MG53) (Homo sapiens, UniProt Q6ZMU5, R169A/R180A/R198A).
T5 construct: full-length residues 2-477; E. coli Rosetta (DE3), His-Sumo cut by Ulp1; GFP-labelled for MST, FLAG-tagged for PIP-Strips; dimer
T5 sequence (Q6ZMU5 2-477 R169A/R180A/R198A): T1 sequence (Q6ZMU5 2-477) with R168A, R179A, R197A

Turning to `N[C@@H](COP(=O)(O)O)C(=O)O` [phospho-L-serine], the Kd (commonly the constant that tells how readily two partners part at equilibrium) was approximately 10 µM in test [1]; approximately 4.7 µM on SPRY domain; approximately 19.6 µM in test [2]; approximately 10 µM at CC-SPRY; approximately 38 µM in test [3].
